In patent US11254663B2 (BRISTOL-MYERS SQUIBB COMPANY, priority 2019, dated 2022):

biological target: FXR (Homo sapiens (Human), UniProt Q96RI1); experiment: transient human FXR/Gal4-luciferase reporter assay; format: cell-based; settings: Gal4-hFXR fusion construct, HEK293 reporter cells; response relative to 8 μM GW-4064
Summary of the method: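 HEK293 cells stably carrying a 5×Gal4 response element–firefly luciferase reporter were transiently transfected overnight with a Gal4 DBD–human FXR LBD fusion plasmid. Compound was added in DMSO and cells were incubated overnight at 37 °C, 5% CO2. Activity was read as Steady-Glo luminescence.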

FXR, sequence (Q96RI1 262-486): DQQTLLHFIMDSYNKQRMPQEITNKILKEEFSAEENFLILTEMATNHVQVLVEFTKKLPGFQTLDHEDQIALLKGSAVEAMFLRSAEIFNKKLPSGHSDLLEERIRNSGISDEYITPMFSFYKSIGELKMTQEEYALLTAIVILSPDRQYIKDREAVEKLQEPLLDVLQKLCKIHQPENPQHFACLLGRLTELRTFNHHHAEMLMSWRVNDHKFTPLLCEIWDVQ

Compound | EC50 [nM]
N#Cc1cnc2ccc(-c3cccc(N(CC45CCC(c6nc(C7CC7)no6)(CC4)CC5)C(=O)C45CC(F)(C4)C5)c3)nn12 [Example 306, N-(3-(3-cyanoimidazo[1,2-b]pyridazin-6-yl)phenyl)-N-((4-(3-cyclopropyl-1,2,4-oxadiazol-5-yl)bicyclo[2.2.2]octan-1-yl)methyl)-3-fluorobicyclo[1.1.1]pentane-1-carboxamide] | 386
O=C(N(CC12CCC(c3nc(C4CC4)no3)(CC1)CC2)c1cccc(-c2ccn3cnnc3c2)c1)C12CC(F)(C1)C2 [Example 307, N-(3-([1,2,4]triazolo[4,3-a]pyridin-7-yl)phenyl)-N-((4-(3-cyclopropyl-1,2,4-oxadiazol-5-yl)bicyclo[2.2.2]octan-1-yl)methyl)-3-fluorobicyclo[1.1.1]pentane-1-carboxamide] | 832
O=C(N(CC12CCC(c3nc(C4CC4)no3)(CC1)CC2)c1cccc(-c2ccc(OC(F)F)cc2)c1)C12CC(F)(C1)C2 [Example 308, N-((4-(3-cyclopropyl-1,2,4-oxadiazol-5-yl)bicyclo[2.2.2]octan-1-yl)methyl)-N-(4′-(difluoromethoxy)-[1,1′-biphenyl]-3-yl)-3-fluorobicyclo[1.1.1]pentane-1-carboxamide] | 15
O=C(N(CC12CCC(c3nc(C4CC4)no3)(CC1)CC2)c1cccc(-c2cccn3ncnc23)c1)C12CC(F)(C1)C2 [Example 309, N-(3-([1,2,4]triazolo[1,5-a]pyridin-8-yl)phenyl)-N-((4-(3-cyclopropyl-1,2,4-oxadiazol-5-yl)bicyclo[2.2.2]octan-1-yl)methyl)-3-fluorobicyclo[1.1.1]pentane-1-carboxamide] | 221
Cc1cnc(-c2cccc(N(CC34CCC(c5nc(C6CC6)no5)(CC3)CC4)C(=O)C34CC(F)(C3)C4)c2)cn1 [Example 310, N-((4-(3-cyclopropyl-1,2,4-oxadiazol-5-yl)bicyclo[2.2.2]octan-1-yl)methyl)-3-fluoro-N-(3-(5-methylpyrazin-2-yl)phenyl)bicyclo[1.1.1]pentane-1-carboxamide] | 59
N#Cc1ccc(-c2cccc(N(CC34CCC(c5nc(C6CC6)no5)(CC3)CC4)C(=O)C34CC(F)(C3)C4)c2)c2cccnc12 [Example 311, N-(3-(8-cyanoquinolin-5-yl)phenyl)-N-((4-(3-cyclopropyl-1,2,4-oxadiazol-5-yl)bicyclo[2.2.2]octan-1-yl)methyl)-3-fluorobicyclo[1.1.1]pentane-1-carboxamide] | 662
Cc1c(-c2cccc(N(CC34CCC(c5nc(C6CC6)no5)(CC3)CC4)C(=O)C34CC(F)(C3)C4)c2)cn2ncnc2c1C [Example 312, N-((4-(3-cyclopropyl-1,2,4-oxadiazol-5-yl)bicyclo[2.2.2]octan-1-yl)methyl)-N-(3-(7,8-dimethyl-[1,2,4]triazolo[1,5-a]pyridin-6-yl)phenyl)-3-fluorobicyclo[1.1.1]pentane-1-carboxamide] | 916
Cn1ncc2cc(C#N)c(-c3cccc(N(CC45CCC(c6nc(C7CC7)no6)(CC4)CC5)C(=O)C45CC(F)(C4)C5)c3)nc21 [Example 313, N-(3-(5-cyano-1-methyl-1H-pyrazolo[3,4-b]pyridin-6-yl)phenyl)-N-((4-(3-cyclopropyl-1,2,4-oxadiazol-5-yl)bicyclo[2.2.2]octan-1-yl)methyl)-3-fluorobicyclo[1.1.1]pentane-1-carboxamide] | 194
N#Cc1cnn2c(-c3cccc(N(CC45CCC(c6nc(C7CC7)no6)(CC4)CC5)C(=O)C45CC(F)(C4)C5)c3)cnc2c1 [Example 314, N-(3-(7-cyanoimidazo[1,2-b]pyridazin-3-yl)phenyl)-N-((4-(3-cyclopropyl-1,2,4-oxadiazol-5-yl)bicyclo[2.2.2]octan-1-yl)methyl)-3-fluorobicyclo[1.1.1]pentane-1-carboxamide] | 504
O=C(N(CC12CCC(c3nc(C4CC4)no3)(CC1)CC2)c1cccc(-c2nc(Cl)nn3cccc23)c1)C12CC(F)(C1)C2 [Example 315, N-(3-(2-chloropyrrolo[2,1-f][1,2,4]triazin-4-yl)phenyl)-N-((4-(3-cyclopropyl-1,2,4-oxadiazol-5-yl)bicyclo[2.2.2]octan-1-yl)methyl)-3-fluorobicyclo[1.1.1]pentane-1-carboxamide] | 913
N#Cc1cc2sccc2nc1-c1cccc(N(CC23CCC(c4nc(C5CC5)no4)(CC2)CC3)C(=O)C23CC(F)(C2)C3)c1 [Example 316, N-(3-(6-cyanothieno[3,2-b]pyridin-5-yl)phenyl)-N-((4-(3-cyclopropyl-1,2,4-oxadiazol-5-yl)bicyclo[2.2.2]octan-1-yl)methyl)-3-fluorobicyclo[1.1.1]pentane-1-carboxamide] | 138
O=C(N(CC12CCC(c3nc(C4CC4)no3)(CC1)CC2)c1cccc(-c2cc(F)c3nccn3c2)c1)C12CC(F)(C1)C2 [Example 317, N-((4-(3-cyclopropyl-1,2,4-oxadiazol-5-yl)bicyclo[2.2.2]octan-1-yl)methyl)-3-fluoro-N-(3-(8-fluoroimidazo[1,2-a]pyridin-6-yl)phenyl)bicyclo[1.1.1]pentane-1-carboxamide] | 887
O=C(N(CC12CCC(c3nc(C4CC4)no3)(CC1)CC2)c1cccc(-c2cnc3cccnn23)c1)C12CC(F)(C1)C2 [Example 318, N-((4-(3-cyclopropyl-1,2,4-oxadiazol-5-yl)bicyclo[2.2.2]octan-1-yl)methyl)-3-fluoro-N-(3-(imidazo[1,2-b]pyridazin-3-yl)phenyl)bicyclo[1.1.1]pentane-1-carboxamide] | 172
Cc1cnn2c(-c3cccc(N(CC45CCC(c6nc(C7CC7)no6)(CC4)CC5)C(=O)C45CC(F)(C4)C5)c3)cnc2c1 [Example 319, N-((4-(3-cyclopropyl-1,2,4-oxadiazol-5-yl)bicyclo[2.2.2]octan-1-yl)methyl)-3-fluoro-N-(3-(7-methylimidazo[1,2-b]pyridazin-3-yl)phenyl)bicyclo[1.1.1]pentane-1-carboxamide] | 161
Cc1cn2cc(-c3cccc(N(CC45CCC(c6nc(C7CC7)no6)(CC4)CC5)C(=O)C45CC(F)(C4)C5)c3)c(C)cc2n1 [Example 320, N-((4-(3-cyclopropyl-1,2,4-oxadiazol-5-yl)bicyclo[2.2.2]octan-1-yl)methyl)-N-(3-(2,7-dimethylimidazo[1,2-a]pyridin-6-yl)phenyl)-3-fluorobicyclo[1.1.1]pentane-1-carboxamide] | 493
Cc1nc2c(C(F)(F)F)cc(-c3cccc(N(CC45CCC(c6nc(C7CC7)no6)(CC4)CC5)C(=O)C45CC(F)(C4)C5)c3)cn2n1 [Example 321, N-((4-(3-cyclopropyl-1,2,4-oxadiazol-5-yl)bicyclo[2.2.2]octan-1-yl)methyl)-3-fluoro-N-(3-(2-methyl-8-(trifluoromethyl)-[1,2,4]triazolo[1,5-a]pyridin-6-yl)phenyl) bicyclo[1.1.1]pentane-1-carboxamide] | 1460
Cc1cn2cc(-c3cccc(N(CC45CCC(c6nc(C7CC7)no6)(CC4)CC5)C(=O)C45CC(F)(C4)C5)c3)cc(C)c2n1 [Example 322, N-((4-(3-cyclopropyl-1,2,4-oxadiazol-5-yl)bicyclo[2.2.2]octan-1-yl)methyl)-N-(3-(2,8-dimethylimidazo[1,2-a]pyridin-6-yl)phenyl)-3-fluorobicyclo[1.1.1]pentane-1-carboxamide] | 270
O=C(N(CC12CCC(c3nc(C4CC4)no3)(CC1)CC2)c1cccc(-c2ccc3nncn3c2)c1)C12CC(F)(C1)C2 [Example 323, N-(3-([1,2,4]triazolo[4,3-a]pyridin-6-yl)phenyl)-N-((4-(3-cyclopropyl-1,2,4-oxadiazol-5-yl)bicyclo[2.2.2]octan-1-yl)methyl)-3-fluorobicyclo[1.1.1]pentane-1-carboxamide] | 1630
Cc1nc2ccc(-c3cccc(N(CC45CCC(c6nc(C7CC7)no6)(CC4)CC5)C(=O)C45CC(F)(C4)C5)c3)cn2n1 [Example 324, N-((4-(3-cyclopropyl-1,2,4-oxadiazol-5-yl)bicyclo[2.2.2]octan-1-yl)methyl)-3-fluoro-N-(3-(2-methyl-[1,2,4]triazolo[1,5-a]pyridin-6-yl)phenyl)bicyclo[1.1.1]pentane-1-carboxamide] | 250
Cc1ccc(-c2cccc(N(CC34CCC(c5nc(C6CC6)no5)(CC3)CC4)C(=O)C34CC(F)(C3)C4)c2)nc1 [Example 325, N-((4-(3-cyclopropyl-1,2,4-oxadiazol-5-yl)bicyclo[2.2.2]octan-1-yl)methyl)-3-fluoro-N-(3-(5-methylpyridin-2-yl)phenyl)bicyclo[1.1.1]pentane-1-carboxamide] | 24
O=C(N(CC12CCC(c3nc(C4CC4)no3)(CC1)CC2)c1cccc(-c2cc(Br)cn3ncnc23)c1)C12CC(F)(C1)C2 [Example 326, N-(3-(6-bromo-[1,2,4]triazolo[1,5-a]pyridin-8-yl)phenyl)-N-((4-(3-cyclopropyl-1,2,4-oxadiazol-5-yl)bicyclo[2.2.2]octan-1-yl)methyl)-3-fluorobicyclo[1.1.1]pentane-1-carboxamide] | 782
Cc1cc(-c2cccc(N(CC34CCC(c5nc(C6CC6)no5)(CC3)CC4)C(=O)C34CC(F)(C3)C4)c2)nc2scnc12 [Example 327, N-((4-(3-cyclopropyl-1,2,4-oxadiazol-5-yl)bicyclo[2.2.2]octan-1-yl)methyl)-3-fluoro-N-(3-(7-methylthiazolo[5,4-b]pyridin-5-yl)phenyl)bicyclo[1.1.1]pentane-1-carboxamide] | 303
N#Cc1cc2c(nc1-c1cccc(N(CC34CCC(c5nc(C6CC6)no5)(CC3)CC4)C(=O)C34CC(F)(C3)C4)c1)CCOC2 [Example 328, N-(3-(3-cyano-7,8-dihydro-5H-pyrano[4,3-b]pyridin-2-yl)phenyl)-N-((4-(3-cyclopropyl-1,2,4-oxadiazol-5-yl)bicyclo[2.2.2]octan-1-yl)methyl)-3-fluorobicyclo[1.1.1]pentane-1-carboxamide] | 339
